Assay results: patent US12582631B2, “Methods of improving renal function” (Chinook Therapeutics, Inc., priority 2019, dated 2026)
“Also recorded” adds a separate entry of the source. Like-named read-outs stand apart in the source and are kept apart here. Each block holds one molecule with its values, some of them ahead of it. Positions of bridges follow the written chain, without caps; N, C: chain ends. No end group written: not given here.

Assays:
[1] = tested on: IL-6 production in primary human renal mesangial cells (HRMCs); assay: ET-1 induced IL-6 production in HRMCs (ELISA); format: cell-based; conditions: for IC50: Homo sapiens, Mesangial cell, read-out: IC50, ET-1 stimulated IL-6 production
[2] = tested on: canonical signaling pathways in kidney tissue of g-ddY mice; assay: Ingenuity Pathway Analysis (IPA) of canonical pathways, g-ddY kidney RNA-seq; format: in vivo, mouse; conditions: 30 mg/kg/day
g-ddY mice = assay: UACR (albuminuria) in g-ddY mouse model of IgA nephropathy; format: in vivo; conditions: approximately 5 days
Description: The grouped ddY (g-ddY) mouse is a spontaneous model of early-onset IgA nephropathy characterized by IgA immune complex deposition in the mesangium of the kidney, leading to significant proteinuria, glomerular hypercellularity, mesangioproliferative glomerular lesions, glomerular sclerosis and reduced kidney function, all hallmarks of human IgA nephropathy (J Am Soc Nephrol 23: 1364-1374, 2012). Consistent with human IgA nephropathy, the mesangial IgA deposits in the g-ddY mouse are also accompanied by deposition of IgG and complement C3.

[3] = tested on: gene expression in kidney tissue of g-ddY mice; assay: RNA-seq differential gene expression in kidney tissue of g-ddY mice (edgeR); format: in vivo, mouse
Experimental: RNA isolation and sequencing libraries were generated using standard protocols. Sequencing was performed using an Illumina NextSeq500 using manufacturer's instructions with a read length of 75 bp and a read depth of 30 million. Raw data was assembled to FASTQ files. Following QC analysis, high quality sequencing reads (e.g., reads with a Phred quality score >36) were aligned to the mouse reference genome (GRCm38-mm10) using the default parameters of the align algorithm and transcript count tables of each library was generated using the default parameters of the featureCounts algorithm of the RSubread package (Liao […], Shi W, 2019). High quality sequencing reads mapped to 27,129 genes. Following additional QC of low count filtering (i.e. transcripts <10 counts across all samples), 16,207 genes were identified and used for further analysis. The remaining sequencing read counts of the included 16,207 genes were normalized to library size, log-transformed, and were quantified as counts per million (CPM). Select RNA-seq counts were validated using qPCR. Sequencing read counts (CPM) were used for identification of differential gene expression between specified populations using the quasi-likelihood methodology of the edgeR package. […] MA plots were generated using edgeR. Heatmaps and other plots were generated using the gplots and ggplot2 package.

ET-1 stimulated HRMC = assay: Hallmark gene set enrichment in ET-1 stimulated HRMC treated with atrasentan; format: cell-based, human; conditions: atrasentan at 1 nM and 25 nM
[4] = tested on: primary human renal mesangial cells (HRMCs); assay: Proliferation (BrdU) of HRMCs stimulated with IgA-containing immune complexes from IgAN patients; format: cell-based; conditions: HRMCs treated with IgA containing serum fractions from healthy controls
[5] = tested on: hallmark gene sets in kidney tissue of g-ddY mice; assay: Gene Set Enrichment Analysis (GSEA) of hallmark gene sets, g-ddY kidney RNA-seq; format: in vivo, mouse

Molecule: ET-1: endothelin 1 (ET-1), used at 10 ng/mL to stimulate primary human mesangial cells (CSCSSLMDKECVYFCHLDIIW; disulfide 1-15, 3-11; ends not checked; UniProt P05305 53-73, looked up)
increase in IL-6 production ([1]; HRMCs exposed to ET-1 over 48 hours): ~6 fold | increase in IL-6 production ([1]; HRMCs exposed to ET-1 over 72 hours): ~2.2 fold

IC50 ([1]; 48 h, 10 ng/mL ET-1, 48 hours): ~1 nM | IC50 ([1]; 72 h, 10 ng/mL ET-1, 72 hours): ~1 nM
Molecule: CCCCN(CCCC)C(=O)CN1C[C@H](c2ccc3c(c2)OCO3)[C@@H](C(=O)O)[C@@H]1c1ccc(OC)cc1 [atrasentan, (2R,3R,4S)-4-(1,3-benzodioxol-5-yl)-1-[2-(dibutylamino)-2-oxoethyl]-2-(4-methoxyphenyl)pyrrolidine-3-carboxylic acid]
NF-κB signaling [2]: reduced NF-κB signaling | PDGF signaling [2]: reduced PDGF signaling | reduction of UACR from baseline (g-ddY mice; 20 mg/kg/day in drinking water): > 60% | albuminuria compared to baseline (paired t-test) (g-ddY mice; 20 mg/kg/day): reduced from baseline to a similar extent | effect on UACR compared to control group (un-paired t-test) (g-ddY mice; 20 mg/kg/day): statistically significant compared to the control group; also recorded: significantly reduced albuminuria | reduction of UACR from baseline (g-ddY mice; 30 mg/kg/day in drinking water): > 60% | albuminuria compared to baseline (paired t-test) (g-ddY mice; 30 mg/kg/day): reduced albuminuria from baseline | effect on UACR compared to control group (un-paired t-test) (g-ddY mice; 30 mg/kg/day): statistically significant compared to the control group; also recorded: significantly reduced albuminuria | differentially expressed genes of the ET1 gene signature ([3]; 10 mg/kg/day vs untreated control): Ccnd1, Ppara, Agt, Map2k2 and Hoxa9 were upregulated while Grk5, Mllt3, Klf2, Pparg, Hgf, Edn1, Fos, Ptgs2, and IL-1b were downregulated | differentially expressed genes of the ET1 gene signature ([3]; 20 mg/kg/day vs untreated control): Ccdn1, Cat, Ppara, Map2k2, Hoxa9, Agt, and Egfr were upregulated while Nfatc1, Grk5, Klf2, Cav1, Pparg, Itga5, Myc, Ednra, Sell, Hgf, Mmp2, Edn1, Syk, Fos, and IL-1b were downregulated | Ednra and Ednrb gene expression ([3]; 30 mg/kg/day): downregulated | differentially expressed genes of the ET1 gene signature ([3]; 30 mg/kg/day vs untreated control): upregulated genes Ccnd1, Agt, Cat, Map2k2, Hoxa9, and Ppara and downregulated genes Ednrb, Myc, Mllt3, Hdac7, Ednra, Itga5, Grk5, Pparg, Klf2, Hgf, Mmp2, Sell, Sphk1, Fos, Syk, Edn1, and IL-1b | ET1 (End1) gene expression ([3]; all three doses (10, 20, 30 mg/kg/day)): downregulated | enrichment of hallmark gene sets (ET-1 stimulated HRMC): under-expression of hallmark gene sets | basal cell proliferation [4]: had no effect on basal cell proliferation | IL-6 signaling ([5]; 30 mg/kg/day): reduced IL-6 signaling | cell proliferation associated signaling (mitotic spindle and G2M checkpoint) ([5]; 30 mg/kg/day): reduced cell proliferation associated signaling | inflammatory response signaling ([5]; 30 mg/kg/day): reduced inflammatory response signaling | NES of hallmark signaling pathways (TNFα signaling via NF-κB, epithelial mesenchymal transition, inflammatory response, IL6-JAK-STAT3 signaling, mitotic spindle, G2M checkpoint) ([5]; 10, 20, and 30 mg/kg/day, adjusted p-value <0.05): < −1.5
